Measurements taken from patent US7595313B2, “Nitric oxide donating diuretic compounds, compositions and methods of use” (NicOx, S.A., priority 2005, dated 2009).

tested on: Male Wistar rats; assay: Determination of the diuresis (urine volume over 6 hours after oral dosing); type: in vivo, rat; conditions: p.o. 3 mg/kg in 0.5% Methocel, male Wistar rats, 6 hours, mean ± SEM, n=6 or 7
Protocol: Procedures were approved by the Institutional Animal Care and Use Committee of NitroMed, Inc. Male Wistar rats (180-200 g) were purchased from Charles River Laboratories (Kingston, N.Y. or Raleigh, N.C.) and allowed to acclimate in the facility for a period of at least 72 h. Rats were randomly housed 2-3 per cage in a light-controlled room with a 12 hour light/dark cycle and allowed ad libitum access to food and water.
Prior to the experiment, each rat was placed in a metabolic cage and allowed to acclimate for a period of 24-48 hours with food and water ad libitum. During this acclimation period, rats received mash food instead of pellet food to prevent contamination of the urine samples. All rats were fasted for 18 hours prior to experimentation. In addition, water was removed 90 minutes prior to oral dosing with test compound or vehicle.
The test compounds were prepared immediately prior to dosing in 0.5% Methocel (F4M Premium Hydroxypropyl Methylcellulose, lot # PF12012N12; Dow Chemical Company, USA) and homogenized with a glass/Teflon pestle motorized homogenizer. Gently vortexed test compounds were administered intragastrically (p.o.; 30 mg/kg or 3 mg/kg) at a dose volume of 3 ml per rat using an 18 gauge gavage needle. Urine volume (ml) was monitored and urine was collected for subsequent electrolyte analysis over a 6 hours period. […] Data are expressed as mean ±SEM; n=6 or 7.

**Q.** How did the “Urine collected in 6 hours (mL) (3 mg/kg)” value (“Urine collected … (3 mg/kg)” below) turn out when NS(=O)(=O)c1cc2c(cc1Cl)NCN(CCCCOc1cc(CO)cc(CO)c1)S2(=O)=O [Example 69a, 2H-1,2,4-Benzothiadiazine-7-sulfonamide, 2-[4-[3,5-bis(hydroxymethyl)phenoxy]butyl]-6-chloro-3,4-dihydro-, 1,1-dioxide] was run?
**A.** 2.7 ± 0.6 mL

**Q.** With NC1=Nc2cc(Cl)c(S(N)(=O)=O)cc2S(=O)(=O)N1 [Example 4b, 2H-1,2,4-Benzothiadiazine-7-sulfonamide, 3-amino-6-chloro-, 1,1-dioxide] as the compound, how does the “Urine collected … (3 mg/kg)” value read?
**A.** 4.0 ± 0.5 mL

**Q.** Which “Urine collected … (3 mg/kg)” value does the source give for NS(=O)(=O)c1cc2c(cc1Cl)NCN(CCCCO[N+](=O)[O-])S2(=O)=O [Example 40b, 2H-1,2,4-Benzothiadiazine-7-sulfonamide, 6-chloro-3,4-dihydro-2-[4-(nitrooxy)butyl]-, 1,1-dioxide] here?
**A.** 6.0 ± 0.7 mL

**Q.** NS(=O)(=O)c1cc2c(cc1Cl)NC(CBr)NS2(=O)=O (centres unmarked) [Example 36a, 2H-1,2,4-Benzothiadiazine-7-sulfonamide, 3-(bromomethyl)-6-chloro-3,4-dihydro-, 1,1-dioxide] was tested. Which “Urine collected … (3 mg/kg)” value did it give?
**A.** 5.5 ± 0.6 mL

**Q.** Which “Urine collected … (3 mg/kg)” value does the source give for NS(=O)(=O)c1cc2c(cc1Cl)NCN(CCCOc1cc(CO)cc(CO)c1)S2(=O)=O [Example 70b, 2H-1,2,4-Benzothiadiazine-7-sulfonamide, 2-[3-[3,5-bis(hydroxymethyl)phenoxy]propyl]-6-chloro-3,4-dihydro-, 1,1-dioxide] here?
**A.** 2.8 ± 0.7 mL

**Q.** For NS(=O)(=O)c1cc2c(cc1Cl)NCN(CCOc1cc(CO)cc(CO)c1)S2(=O)=O [Example 71b, 2H-1,2,4-Benzothiadiazine-7-sulfonamide, 2-[2-[3,5-bis(hydroxymethyl)phenoxy]ethyl]-6-chloro-3,4-dihydro-, 1,1-dioxide], which “Urine collected … (3 mg/kg)” value is on record?
**A.** 2.1 ± 0.5 mL

**Q.** With NS(=O)(=O)c1cc2c(cc1Cl)NCN(CCOC(=O)CCCCO[N+](=O)[O-])S2(=O)=O [Example 44, Pentanoic acid, 5-(nitrooxy)-, 2-[7-(aminosulfonyl)-6-chloro-3,4-dihydro-1,1-dioxido-2H-1,2,4-benzothiadiazin-2-yl]ethyl ester] as the compound, how does the “Urine collected … (3 mg/kg)” value read?
**A.** 2.5 ± 0.3 mL

**Q.** With NS(=O)(=O)c1cc2c(cc1Cl)NCN(CC(=O)O)S2(=O)=O [Example 31a, 2H-1,2,4-Benzothiadiazine-2-acetic acid, 7-(aminosulfonyl)-6-chloro-3,4-dihydro-, 1,1-dioxide] as the compound, how does the “Urine collected … (3 mg/kg)” value read?
**A.** 2.5 ± 0.3 mL

**Q.** Which “Urine collected … (3 mg/kg)” value does the source give for NS(=O)(=O)c1cc2c(cc1Cl)NC(CN1CCC(CCO[N+](=O)[O-])CC1)NS2(=O)=O.O=C(O)CC(O)(CC(=O)O)C(=O)O (centres unmarked) [Example 36c, 2H-1,2,4-Benzothiadiazine-7-sulfonamide, 6-chloro-3,4-dihydro-3-[[4-[2-(nitrooxy)ethyl]-1-piperidinyl]methyl]-, 1,1-dioxide, 2-hydroxy-1,2,3-propanetricarboxylate (1:1) (salt)] here?
**A.** 3.0 ± 0.4 mL

**Q.** For NS(=O)(=O)c1cc2c(cc1Cl)NCN(CC(O)CO)S2(=O)=O (centres unmarked) [Example 75b, 2H-1,2,4-Benzothiadiazine-7-sulfonamide, 6-chloro-2-(2,3-dihydroxypropyl)-3,4-dihydro-, 1,1-dioxide], which “Urine collected … (3 mg/kg)” value is on record?
**A.** 4.6 ± 0.6 mL

same assay, conditions: p.o. 30 mg/kg in 0.5% Methocel, male Wistar rats, 6 hours, mean ± SEM, n=6 or 7

**Q.** Which “Urine collected in 6 hours (mL) (30 mg/kg)” value (“Urine collected … (30 mg/kg)” below) does the source give for NS(=O)(=O)c1cc2c(cc1Cl)N[C@H](CCCCO[N+](=O)[O-])NS2(=O)=O (single isomer, unassigned) [17c (enantiomer 2)] here?
**A.** 7.8 ± 0.5 mL

**Q.** For NS(=O)(=O)c1cc2c(cc1Cl)N[C@@H](CCCCO[N+](=O)[O-])NS2(=O)=O (single isomer, unassigned) [17c (enantiomer 1)], which “Urine collected … (30 mg/kg)” value is on record?
**A.** 7.0 ± 0.6 mL

**Q.** How did the “Urine collected … (30 mg/kg)” value turn out when NS(=O)(=O)c1cc2c(cc1Cl)N=C(NC(=O)CCCCCO[N+](=O)[O-])NS2(=O)=O [Example 5b, Hexanamide, N-[7-(aminosulfonyl)-6-chloro-1,1-dioxido-2H-1,2,4-benzothiadiazin-3-yl]-6-(nitrooxy)-] was run?
**A.** 4.5 ± 0.5 mL

**Q.** Which “Urine collected … (30 mg/kg)” value does the source give for NS(=O)(=O)c1cc2c(cc1C(F)(F)F)NC1(CCN(C(=O)c3cccc(CO[N+](=O)[O-])c3)CC1)NS2(=O)=O [Example 15b, Spiro[2H-1,2,4-benzothiadiazine-3(4H), 4′-piperidine]-7-sulfonamide, 1′-[3-[(nitrooxy)methyl]benzoyl]-6-(trifluoromethyl)-, 1,1-dioxide] here?
**A.** 4.5 ± 0.2 mL

**Q.** Cc1c(C2Nc3cc(C(F)(F)F)c(S(N)(=O)=O)cc3S(=O)(=O)N2)no[n+]1[O-] (centres unmarked) [Example 10, 2H-1,2,4-Benzothiadiazine-7-sulfonamide, 3,4-dihydro-3-(4-methyl-5-oxido-1,2,5-oxadiazol-3-yl)-6-(trifluoromethyl)-, 1,1-dioxide] was tested. Which “Urine collected … (30 mg/kg)” value did it give?
**A.** 6.9 ± 0.9 mL

**Q.** With CC(C)(C)OC(=O)N1CCC2(CC1)Nc1cc(C(F)(F)F)c(S(N)(=O)=O)cc1S(=O)(=O)N2 [Example 12a, Spiro[2H-1,2,4-benzothiadiazine-3(4H), 4′-piperidine]-1′-carboxylic acid, 7-(aminosulfonyl)-6-(trifluoromethyl)-, 1,1-dimethylethyl ester, 1,1-dioxide] as the compound, how does the “Urine collected … (30 mg/kg)” value read?
**A.** 4.0 ± 0.4 mL

same assay, conditions: rat, in vivo, po

**Q.** For NS(=O)(=O)c1cc2c(cc1Cl)NCN(CC(=O)N(CCO[N+](=O)[O-])CCO[N+](=O)[O-])S2(=O)=O [Example 39, 2H-1,2,4-Benzothiadiazine-2-acetamide, 7-(aminosulfonyl)-6-chloro-3,4-dihydro-N,N-bis[2-(nitrooxy)ethyl]-, 1,1-dioxide], which “Urine collected … (3 mg/kg)” value is on record?
**A.** 2.5 ± 0.5 mL

**Q.** NS(=O)(=O)c1cc2c(cc1Cl)NCN(CC(CO[N+](=O)[O-])O[N+](=O)[O-])S2(=O)=O (centres unmarked) [Example 75c, 2H-1,2,4-Benzothiadiazine-7-sulfonamide, 2-[2,3-bis(nitrooxy)propyl]-6-chloro-3,4-dihydro-, 1,1-dioxide] was tested. Which “Urine collected … (3 mg/kg)” value did it give?
**A.** 5.4 ± 0.6 mL

**Q.** With NS(=O)(=O)c1cc2c(cc1Cl)NC1(CCN(C(=O)CCC(CO[N+](=O)[O-])O[N+](=O)[O-])CC1)NS2(=O)=O (centres unmarked) [Example 22b, Spiro[2H-1,2,4-benzothiadiazine-3(4H), 4′-piperidine]-7-sulfonamide, 1′-[4,5-bis(nitrooxy)-1-oxopentyl]-6-chloro-, 1,1-dioxide] as the compound, how does the “Urine collected … (30 mg/kg)” value read?
**A.** 2.5 ± 0.2 mL

**Q.** With NS(=O)(=O)c1cc2c(cc1Cl)NCN(CC(=O)OC[C@H](CO[N+](=O)[O-])O[N+](=O)[O-])S2(=O)=O [Example 31b, 2H-1,2,4-Benzothiadiazine-2-acetic acid, 7-(aminosulfonyl)-6-chloro-3,4-dihydro-, (2R)-2,3-bis(nitrooxy)propyl ester, 1,1-dioxide] as the compound, how does the “Urine collected … (3 mg/kg)” value read?
**A.** 2.0 ± 0.3 mL

**Q.** How did the “Urine collected … (3 mg/kg)” value turn out when NS(=O)(=O)c1cc2c(cc1Cl)NCN(C[C@@H](CO[N+](=O)[O-])O[N+](=O)[O-])S2(=O)=O (single isomer, unassigned) [75d (enantiomer 2)] was run?
**A.** 5.5 ± 0.4 mL

**Q.** For NS(=O)(=O)c1cc2c(cc1Cl)NCN(CCOC(=O)CCC(CO[N+](=O)[O-])O[N+](=O)[O-])S2(=O)=O (centres unmarked) [Example 42, Pentanoic acid, 4,5-bis(nitrooxy)-, 2-[7-(aminosulfonyl)-6-chloro-3,4-dihydro-1,1-dioxido-2H-1,2,4-benzothiadiazin-2-yl]ethyl ester], which “Urine collected … (3 mg/kg)” value is on record?
**A.** 6.2 ± 0.3 mL

**Q.** Which “Urine collected … (3 mg/kg)” value does the source give for NS(=O)(=O)c1cc2c(cc1Cl)NCN(C[C@H](CO[N+](=O)[O-])O[N+](=O)[O-])S2(=O)=O (single isomer, unassigned) [75d (enantiomer 1)] here?
**A.** 5.3 ± 0.3 mL
